Results taken from US7662547B2, “Compositions and methods for detecting and treating HIV infections” (priority 2006, dated 2010).

Legend:
F-actin = test: FITC-phalloidin staining of F-actin and flow cytometry in resting CD4 T cells; type: cell-based, human
Method: Cells were stimulated with HIV-1 or gp120 IIIB (Microbix Biosystems Inc. Toronto, Ontario). F-actin staining using FITC-labeled phalloidin (Sigma, St. Louis, Mo.) was carried out according to the manufacture's recommendation with minor modifications. Briefly, each staining was carried out by using 10^6 cells. Cells were pelleted, fixed and permeabilized with cytoperm/cytofix (BD biosciences, San Diego, Calif.) for 20 min on ice, followed by stained with 5 μl of 0.3 uM FITC-labeled phalloidin for 30 min at 4° C. After wash, cells were resuspended in 1% paraformaldehyde and analyzed on FACSCalibur (BD Biosciences, San Jose, Calif.)

HIV-1 = HIV-1 latent infection of resting CD4 T cells, viral replication assay (p24 ELISA) after anti-CD3/CD28 activation; type: cell-based, HIV-1NL4-3; conditions: for HIV replication in resting T cells: 5 minutes before infection
Method: Virus stocks of the HIV-1NL4-3 (Adachi et al. J Virol 59(2), 284-91 (1986)) were prepared by transfection of HeLa cells with cloned proviral DNA as described in Wu and Marsh (2001). Supernatant was harvested at 48 hours, and filtered through a 0.45 μm nitrocellulose membrane. Virus titer (TCID50) was measured by infection of a Rev-CEM indicator cell line which was constructed through stable integration of a Rev-dependent GFP expression lentiviral vector into CEM-SS. […] For infection of resting CD4 T cells, viruses were first titrated to determine minimal levels detectable by p24 ELISA in replication assays described below. Unless specified, for most replication assays, 10^3.5 to 10^4.5 TCID50 units of HIV-1 were used to infect 10^6 cells. For infection procedure, CD4 T cells were incubated with the virus for 2 hours, then washed twice with medium to remove unbound virus. Infected cells were resuspended into fresh RPMI 1604 medium supplemented with 10% heat-inactivated fetal bovine serum, penicillin (50 U/ml) and streptomycin (50 μg/ml) at a density of 10^6 per ml and incubated for 5 days without stimulation. Cells were activated at day 5 with anti-CD3/CD28 magnetic beads at 4 beads per cells. For viral replication assay, 10% of infected cells were taken at 1, 3, 5, 6, 7, 8, 9 days post infection. Cells were pelleted and the supernatant was saved for p24 ELISA. Levels of p24 in the supernatant were measured by using Coulter HIV-1 p24 Assay Kit (Beckman Coulter, Inc. Miami, Fla.). Plates were kinetically read using ELx808 automatic microplate reader (Bio-Tek Instruments, Inc. Winooski, Vt.) at 630 nm.
Resting CD4 T cells were treated with pertussis toxin (Sigma, St. Louis, Mo.) at a final concentration of 100 ng/ml for 2 hours, then infected with HIV-1. Following infection, cells were washed 2 to 3 times to remove cell-free virus and the inhibitor. Cells were treated with Jasplakinolide (Molecular Probes, Eugene, Oreg.) for 1 to 2 hours or Latrunculin A (Biomol, Plymouth Meeting, Pa.) for 5 minutes at various concentrations, washed twice with medium, then infected with HIV-1. Following infection, cells were washed twice to remove cell free virus. Cells were treated with 200 nM of Staurosporine (Biomol, Plymouth Meeting, Pa.) for 2 hours, then infected with HIV-1. Following infection, cells were washed twice to remove cell-free virus and the inhibitor.
Resting CD4 T cells were treated with S3 or Q104 for I to 2 hours, then infected with HIV-1. Following infection, cells were washed 2 to 3 times to remove cell-free virus and the peptides.
Effects of Jas on LFA-1 activation also were tested. Jas treated or untreated resting T cells were activated by anti-CD3/CD28 bead and stained with human ICAM-1/Fc chimera and analyzed by flow cytometer. The effects of Jas on IL-2 secretion also were measured. […] Cells were treated with Jas for 2 hours, washed, infected with HIV-1 for 5 days, then activated by anti-CD3/CD28 bead. […] Following infection, cellular DNA was PCR amplified for viral late DNA and β-actin pseudogene. Cells were pre-activated with PHA plus IL-2, then treated and infected as in FIG. 3A. […] CEM-SS cell were treated and infected as in FIG. 3A.

IL-2 secretion = test: IL-2 ELISA of cell culture supernatant after T cell activation; type: cell-based, human; conditions: 200 nM, treated, incubated and activated
Method: IL-2 release into cell culture supernatant was detected by a human IL-2 ELISA development kit (PeproTech, Rocky Hill, N.J.) according to the manufacture's instruction. Briefly, each well of a plate was coated with 100 μl of capture antibody (1 μg/ml) and incubated overnight at room temperature, then washed and blocked with 300 μl of blocking solution for one hour at room temperature. Samples in plates were incubated for 1 hour at 37° C., then washed and incubated with 100 μl of detection antibody (0.5 μg/ml) for 1 hour at 37° C. Plates were washed and incubated with 100 μl of the avidin-peroxidase conjugate (1:2000 dilution) for 30 minutes at room temperature followed by washing and incubation with 100 μl of Tetramethylbenzidine (TMB) substrate buffer. Plates were kinetically read using ELx808 automatic microplate reader (Bio-Tek Instruments, Inc. Winooski, Vt.) at 630 nm.

cofilin = test: Cofilin and phospho-cofilin western blot in resting CD4 T cells; type: cell-based, human
Method: For activation of resting CD4 T cells with PHA (3 μg/ml) (Sigma, St. Louis, Mo.) plus IL-2 (100 U/ml) (Roche Applied Science, Indianapolis, Ind.), cells were cultured in the presence of these agents for 1 day.
Briefly, 10^6 of CD4 T cells were lysed in NuPAGE LDS Sample Buffer (Invitrogen, Carlsbad, Calif.) followed by sonication. Samples were heated at 70° C. for 10 minutes before loading, then separated by SDS-PAGE and transferred onto nitrocellulose membranes (Invitrogen, Carlsbad, Calif.). The membranes were washed in TBS for 5 minutes and then blocked for 30 minutes at room temperature with Starting Block blocking buffer (Pierce, Rockford, Ill.). The blots were incubated with either a rabbit anti-cofilin antibody (1:1000 dilution) (Cell Signaling, Danvers, Mass.) or a rabbit anti-phospho-cofilin (ser3) antibody (1:1000 dilution) (Cell Signaling, Danvers, Mass.) diluted in 5% BSA-TBST and rocked at room temperature for 1 hour. The blots were washed three times for 15 minutes each and then incubated with a goat anti-rabbit horseradish peroxidase-conjugated antibodies (KPL, Inc. Gaithersburg, Md.) diluted in 2.5% skim milk-TBST (1:1000) for 1 hour. […] Images were captured with a CCD camera (Fluor Chem 9900 Imaging Systems) (Alpha Innotech, San Leandro, Calif.) and analyzed and processed by NIH-Image Version 163.

LIMK1 = target: T1, LIMK1 (Homo sapiens, UniProt P53667); test: In vitro LIMK1 kinase assay with GST-tagged recombinant human cofilin; type: biochemical
T1 construct: purchased Upstate Biotechnologies, Lake Placid, N.Y
Method: LIMK1 Kinase assays were performed using purified LIMK1 and GST-tagged recombinant human cofilin (Upstate Biotechnologies, Lake Placid, N.Y.) according to the manufacture's recommendation with minor modifications. Briefly, 18 μg of recombinant cofilin was incubated in 1× Kinase reaction buffer ([…], pH7.0, 200 μM EDTA) in the presence or absence of Staurosporine (200 nM) or the S3, Q104 peptides. LIMK1 was serially diluted in dilution buffer (20 mM MOPS-NaOH pH 7.0, 1 mM EDTA, 0.01% Brij-35, 5% glycerol, 0.1% 2-ME, 1 mg/ml BSA), then added into the reaction along with the ATP buffer (10 mM Magnesium Acetate, 100 μM ATP). The reaction was incubated for 15 minutes at 30° C. with constant agitation. The reaction was stopped by adding 25% (V/V) of 4×LDS sample buffer for SDS-PAGE and heated for 10 minutes at 70° C. Cofilin phosphorylation was analyzed by SDS-PAGE and western blotting using a rabbi anti-phospho-cofilin (ser3) antibody (Cell Signaling, Danvers, Mass.) as described in Example 10.

HIV = conditions: Doranz et al. 1999; cited from earlier work
[1] = 200 nM added during T cell activation at day 5

T1 sequence (P53667 whole entry, species assumed): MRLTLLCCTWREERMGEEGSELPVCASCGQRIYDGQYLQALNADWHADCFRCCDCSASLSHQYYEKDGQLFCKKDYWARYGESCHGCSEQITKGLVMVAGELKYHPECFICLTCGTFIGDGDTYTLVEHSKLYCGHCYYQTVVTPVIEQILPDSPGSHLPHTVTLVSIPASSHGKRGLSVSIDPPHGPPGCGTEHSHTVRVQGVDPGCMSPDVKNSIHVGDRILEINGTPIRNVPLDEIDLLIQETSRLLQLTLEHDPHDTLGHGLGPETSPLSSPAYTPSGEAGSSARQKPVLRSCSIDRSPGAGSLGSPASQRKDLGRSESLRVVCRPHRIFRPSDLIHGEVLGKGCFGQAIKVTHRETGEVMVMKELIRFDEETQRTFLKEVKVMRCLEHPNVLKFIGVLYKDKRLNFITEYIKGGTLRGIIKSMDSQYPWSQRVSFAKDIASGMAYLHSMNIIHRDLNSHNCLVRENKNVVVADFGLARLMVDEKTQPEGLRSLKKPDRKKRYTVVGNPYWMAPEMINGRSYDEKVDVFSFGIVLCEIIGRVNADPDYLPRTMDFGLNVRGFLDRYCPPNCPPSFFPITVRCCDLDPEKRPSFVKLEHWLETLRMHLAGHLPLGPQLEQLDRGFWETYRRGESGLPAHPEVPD

For C/C1=C/C(=O)O[C@@H]2C[C@@H](CC[C@H](C)/C=C\C=C\CC1)O[C@@](O)([C@@H]1CSC(=O)N1)C2 [Lat-A, Latrunculin A], the actin depolymerization (F-actin; 25 nM, 5 min) was “actin depolymerization to an extent similar to that induced by HIV-1”, the actin depolymerization (F-actin; 2.5 μM to 250 nM, 5 min) was “dramatic actin depolymerization” and the “HIV replication in resting T cells, treatment before vs after infection” value (HIV-1; 25 nM, 5 minutes) was “enhancement was seen only in cells pretreated with Lat-A prior to infection”. The “HIV replication in resting T cells” value (HIV-1; 25 nM) was “Enhanced HIV replication”, the “HIV replication in resting T cells” value (HIV-1; 250 nM) was “donor-dependent variations from enhancement to inhibition” and the “HIV replication in resting T cells” value (HIV-1; 2.5 μM) was “inhibited viral replication in all donors”.
With CN[C@@H]1C[C@H]2O[C@@](C)([C@@H]1OC)n1c3ccccc3c3c4c(c5c6ccccc6n2c5c31)C(=O)NC4 [staurosporine] the actin depolymerization (F-actin; 200 nM) was “actin depolymerization also was observed”, the HIV-1 replication (HIV-1; [1]) was “completely abolished HIV-1 replication” and the T cell activation (HIV-1; [1]) was “inhibited T cell activation”. For the same compound, the “HIV replication in resting CD4 T cells” value (HIV-1; 200 nM briefly before infection) was “dramatic enhancement”, the IL-2 secretion (IL-2 secretion) was “slight inhibition” and the “cofilin phosphorylation in resting CD4 T cells” value (cofilin; 200 nM, no stimulation) was “gradual dephosphorylation and activation of cofilin”. The “LIMK1 inhibition compared with S3 peptide” value (LIMK1; 200 nM) was “much stronger” and the “phosphorylation of cofilin by LIMK1” value (LIMK1; 200 nM) was “directly inhibited”.
For “S3: Synthetic peptide MASGVAVSDGVIKVFN (SEQ ID NO: 3), N-terminal 16 amino acids of human cofilin”, the “viral replication in resting CD4 T cells” value (HIV-1; pre-treated 2 hours, then infected) was “enhanced viral replication” and the “cofilin phosphorylation by LIMK1” value (LIMK1; peptide) was “inhibited cofilin phosphorylation”.
For SDF-1: the natural ligand for CXCR4, the F-actin change (F-actin; 50 ng/ml) was “rapid actin polymerization”.
For pertussis toxin [P.T], the “inhibition of viral induced actin depolymerization” value (F-actin; 100 ng/ml for 2 hours, then HIV-1) is listed as “completely inhibited”, the “viral replication in resting T cells” value (HIV-1; 100 ng/ml for 2 hours before infection) is listed as “inhibited viral replication” and the “viral replication in CXCR4 transfected U87-MG cells” value (HIV) is listed as “did not affect viral replication”. For the same compound, the “inhibition of HIV-1 induced cofilin activation” value (cofilin; pretreated, then infected with HIV-1) was “Complete inhibition”.
